Data taken from PubChem BioAssay AID812 (SRMLSC, 2007).
The source made the active and inactive calls. No rule for the calls is given here.

Test system: Saccharomyces cerevisiae lifespan extension, no nicotinamide
Assay: yeast lifespan extension without nicotinamide, confirmation, yeast lifespan extension project, S. cerevisiae (AID 812);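 also: growth read as optical density after 42 hours of incubation at 30C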

Row | Structure (SMILES) | EC50
1 | COc1cccc(/C=C2\C(=O)N(c3cccc(C)c3)C(=O)c3ccccc32)c1 | > 40 µM (inactive)
2 | CS(=O)(=O)c1nc(-c2ccco2)cc(C(F)(F)F)n1 | > 40 µM (inactive)
3 | COc1cccc(C(=O)Oc2cc(N)n(S(=O)(=O)c3ccc(C)cc3)n2)c1OC | > 40 µM (inactive)
4 | CCCCCCCC(=O)N/N=C(/C)c1c(O)cc(C)oc1=O | > 40 µM (inactive)
5 | COc1cc(C(C[N+](=O)[O-])c2c(-c3ccccc3)cc3ccccn23)cc(OC)c1OC (stereo not given) | > 40 µM (inactive)
6 | COc1ccc(/C=C/C(=O)C2C(=O)C=C(C)OC2=O)cc1O (stereo not given) | > 40 µM (inactive)
7 | Oc1ccc2ccccc2c1C=Nc1ccccc1-c1nc2ccccc2[nH]1 | > 40 µM (inactive)
8 | O=Cc1cc2ccccc2nc1SCc1ccc(Cl)cc1 | > 40 µM (inactive)
9 | O=C1ON=C(c2ccccc2)/C1=C/c1ccc(-c2ccccc2[N+](=O)[O-])o1 | > 40 µM (inactive)
10 | CC(=O)Oc1ccc(N(C(C)=O)S(=O)(=O)c2ccc(C)c([N+](=O)[O-])c2)cc1 | > 40 µM (inactive)
11 | O=C1CC(c2ccccc2)CC(O)=C1C=NCCN1CCN(C(=O)Cc2ccccc2)CC1 (stereo not given) | > 40 µM (inactive)
12 | O=C(Nc1nc2ccccc2n1CCN1CCOCC1)c1cn(-c2ccccc2)nc1-c1ccccc1 | > 40 µM (inactive)
13 | CCCC(=O)Nc1ccc(C(=O)NNC(=S)NC(=O)c2cccs2)cc1 | > 40 µM (inactive)
14 | O=c1c2ccccc2sn1-c1ccccc1 | > 40 µM (inactive)
15 | COc1ccc(N(C)C(=S)Nc2ccc3nc(C)c(C)nc3c2)cc1 | > 40 µM (inactive)
16 | Nn1c(-c2ccccn2)nnc1-c1ccccn1 | > 40 µM (inactive)
17 | CCn1c(=O)c2c(O)cc(=O)oc2c2ccccc21 | > 40 µM (inactive)
18 | O=C(c1c[nH]c(C(=O)C(Cl)(Cl)Cl)c1)c1ccccc1Cl | 7.18 µM
19 | O=C(/C=C(\O)c1ccc(Cl)cc1)C(=O)NNC(=O)C(O)(c1ccccc1)c1ccccc1 | > 40 µM (inactive)
20 | N#Cc1ccc(-c2ccc(OCC(=O)NCCc3ccccc3)cc2)cc1 | > 40 µM (inactive)
21 | O=C(NC(=S)NNS(=O)(=O)c1ccccc1)c1ccc([N+](=O)[O-])cc1 | > 40 µM (inactive)
22 | Cc1ccc(-c2ccc(/C=C3\C(=O)ON=C3c3ccccc3)o2)c([N+](=O)[O-])c1 | > 40 µM (inactive)
23 | CC(C)C(OC(=O)CN1C(=O)COc2ccccc21)C(=O)NC1CCCC1 (stereo not given) | > 40 µM (inactive)
24 | Oc1ccc(Br)cc1C=Nc1ccc2[nH]ncc2c1 | > 40 µM (inactive)
25 | O=C1c2ccccc2NC(c2ccc(Cl)cc2Cl)N1O (stereo not given) | > 40 µM (inactive)

Row | Structure (SMILES) | EC50
26 | Fc1cccc2sc(Nc3nnc(-c4ccco4)o3)nc12 | > 40 µM (inactive)
27 | O=C(/C=C/c1ccccc1)C1C(=O)c2ccccc2C1=O | > 40 µM (inactive)
28 | COC(=O)C(=O)/C=C(\O)c1ccc(C)cc1 | > 40 µM (inactive)
29 | O=C1CC(c2ccccc2)CC(O)=C1C=NCCN1CCN(C(=O)Nc2ccccc2)CC1 (stereo not given) | > 40 µM (inactive)
30 | CN(C)CC(C(=O)c1ccccc1)c1ccccc1 (stereo not given) | > 40 µM (inactive)
31 | COC(=O)c1sc(S(=O)(=O)Nc2ccc(Br)cc2)c(C(=O)OC)c1C | > 40 µM (inactive)
32 | Cc1cc(C)nc(SCc2cc(=O)c(OC(=O)c3ccco3)co2)n1 | > 40 µM (inactive)
33 | C=CCN(CC=C)c1nc2ccccc2nc1C(C#N)C(=O)OC(C)C (stereo not given) | > 40 µM (inactive)
34 | CC(=O)Oc1ccccc1N1C(=O)c2ccc(C(=O)O)cc2C1=O | > 40 µM (inactive)
35 | Cc1ccc(C)c(N2CCN(S(=O)(=O)c3c(C)noc3/C=C/N(C)C)CC2)c1 | > 40 µM (inactive)
36 | O=C(NNC1=Nc2cccc3cccc1c23)c1ccccc1Br | > 40 µM (inactive)
37 | O=C(c1cnn2c(C(F)F)cc(C3CC3)nc12)N1CCCC1 | > 40 µM (inactive)
38 | Cc1cc(N2C(=O)CC(Cc3ccccc3)C2=O)no1 (stereo not given) | > 40 µM (inactive)
39 | O=C1C=CC2C(c3ccc4c(c3)OCO4)CC1N2Cc1ccccc1 (stereo not given) | > 40 µM (inactive)
40 | Cc1[nH]nc2nc3c(c(OC(=O)c4ccccc4)c12)c(=O)n(C)c(=O)n3C | > 40 µM (inactive)
41 | O=C1NC(=O)N(CCC2=CCCCC2)C(=O)/C1=C\c1cccs1 | > 40 µM (inactive)
42 | Cc1ccc(N(C)C(=O)Oc2ccc(C(=O)c3ccc(Cl)cc3)cc2)cc1 | > 40 µM (inactive)
43 | CC(c1ccccc1)N1CCn2c(nc3cc(NC(=O)c4cccs4)ccc32)C1 (stereo not given) | > 40 µM (inactive)
44 | O=C(NC(=S)NNC(=O)c1ccccc1O)c1ccco1 | > 40 µM (inactive)
45 | CCCCn1c(/N=C/c2ccccc2NS(=O)(=O)c2ccc(C)cc2)nc2ccccc21 | > 40 µM (inactive)
46 | Cc1cc(N=Cc2c(O)ccc3ccccc23)no1 | > 40 µM (inactive)
47 | Cc1ccccc1OC(=O)n1c(=S)oc2cc(Cl)ccc21 | > 40 µM (inactive)
48 | CCCCC(c1nnnn1CC1CCCO1)N1CCN(c2nc3ccccc3s2)CC1 (stereo not given) | > 40 µM (inactive)
49 | COc1ccccc1C(=O)Oc1cc(N)n(S(=O)(=O)c2ccc(C)cc2)n1 | > 40 µM (inactive)
50 | O=C(/C(=C/O)N=Nc1ccc(Cl)cc1)c1ccncc1 | > 40 µM (inactive)

Row | Structure (SMILES) | EC50
51 | CCCC(=O)Nc1ccccc1Sc1ncnc2scc(-c3ccccc3)c12 | > 40 µM (inactive)
52 | COc1ccc(-c2noc(CSc3nnc(-c4ccncc4)n3-c3ccc(F)cc3)n2)cc1OC | > 40 µM (inactive)
53 | CCCC(=Nc1ccccc1)C1=C(O)C(C(=O)OC)C(C)(C)CC1=O (stereo not given) | > 40 µM (inactive)
54 | CCOC(=O)c1c(C)oc2c1c(C(c1cccnc1)N1CCCCC1)c(O)c1ccccc12 (stereo not given) | > 40 µM (inactive)
55 | CC(C)(C)C1CCc2[nH]nc(C(=O)O)c2C1 (stereo not given) | > 40 µM (inactive)
56 | Cc1cccc(OC(=O)n2c(=S)oc3cc(Cl)ccc32)c1 | > 40 µM (inactive)
57 | COC(=O)c1cc(OC)c(OC)cc1NC(=S)Nc1cccc(C(C)=O)c1 | > 40 µM (inactive)
58 | C=C1C(=O)C=C2CN(C(=O)c3ccccc3)[C@@](Cc3ccc(F)cc3)(C(=O)OC)[C@@H]12 | > 40 µM (inactive)
59 | CCCn1c(C)cc(C(=O)COc2ncnc3sccc23)c1C | > 40 µM (inactive)
60 | CCSc1ccccc1C(=O)n1nnc2ccccc21 | > 40 µM (inactive)
61 | CCOC(=O)C1CCN(C(c2cc3ccc(C)c(C)c3[nH]c2=O)c2nnnn2C2CCCCC2)CC1 (stereo not given) | > 40 µM (inactive)
62 | N#Cc1cc(C(=O)c2cc(F)ccc2O)cn(-c2nccs2)c1=O | > 40 µM (inactive)
63 | Cc1ccc(N(C(=O)CS(=O)CC(=O)Nc2ccc(F)cc2)C(C(=O)NC2CCCCC2)c2ccco2)cc1 (stereo not given) | > 40 µM (inactive)
64 | COc1ccc(NC(=O)/C(Cl)=C(/Cl)S(=O)Cc2ccc(C)cc2)cn1 (stereo not given) | > 40 µM (inactive)
65 | CCOc1ccc(N=Cc2c(O)c3ccccc3oc2=O)cc1 | > 40 µM (inactive)
66 | CC(=O)Oc1oc(-c2ccccc2)nc1C=Nc1ccccc1 | > 40 µM (inactive)
67 | CCOC(=O)COc1ccccc1/C=C\[N+](=O)[O-] | > 40 µM (inactive)
68 | Cc1n[nH]c(=O)n1-c1cccc(C(F)(F)F)c1 | > 40 µM (inactive)
69 | O=C(CCC1CCCC1)c1c(O)c2ccccc2oc1=O | > 40 µM (inactive)
70 | Cc1ccc(C(=O)C2C(=O)c3ccccc3C2=O)cc1 | > 40 µM (inactive)
71 | O=CN(/C=C1\Sc2ccccc2C1=O)Cc1ccccc1 | > 40 µM (inactive)
72 | CCOC(=O)C1Cc2cc3c(cc2C1=O)CC(C(=O)OCC)C3=O (stereo not given) | > 40 µM (inactive)
73 | COc1cccc(/C=C/C(=O)c2c(O)cc(C)oc2=O)c1O | > 40 µM (inactive)
74 | CC[n+]1ccc(C[n+]2ccccc2)c2ccccc21 | > 40 µM (inactive)
75 | O=c1[nH]c2ccccc2nc1C(Cl)c1ccccc1 (stereo not given) | > 40 µM (inactive)

Row | Structure (SMILES) | EC50
76 | O=C(Oc1ccc([N+](=O)[O-])cc1)c1ccc2ccccc2n1 | > 40 µM (inactive)
77 | C/C(=N\NC(=O)c1ccccc1O)C1C(=O)c2ccccc2C1=O | > 40 µM (inactive)
78 | CCCCOC(=O)n1c(=O)oc2cc(S(=O)(=O)N3CCCCC3)ccc21 | > 40 µM (inactive)
79 | O=C(CSc1nc2ccccc2o1)c1cc2ccccc2oc1=O | > 40 µM (inactive)
80 | O=C(/C=C/c1ccccc1)Nc1ncn[nH]1 | > 40 µM (inactive)
81 | Cc1ccc(NC(=O)C2C(=O)N(C)c3ccccc32)cc1 (stereo not given) | > 40 µM (inactive)
82 | C=CCN(CC=C)S(=O)(=O)c1ccc2nc(NC(=O)C(C)C)sc2c1 | > 40 µM (inactive)
83 | CCCCC(=Nc1ccc(N)cc1)C1=C(O)C(C(=O)OC)C(C)(C)CC1=O (stereo not given) | > 40 µM (inactive)
84 | CC(C)c1nnc(NC(=O)c2c(O)c3cccc4c3n(c2=O)CCC4)s1 | > 40 µM (inactive)
85 | CC1=CS(=O)(=O)CC1Sc1nc2ccccc2[nH]1 (stereo not given) | > 40 µM (inactive)
86 | O=Cc1cccn1-c1sc2c(c1C(=O)O)CCCC2 | > 40 µM (inactive)
87 | CCc1ccc(C(=O)CN2C(=O)NC(C)(CCc3ccccc3)C2=O)cc1 (stereo not given) | > 40 µM (inactive)
88 | Cc1ccc2[nH]c(=O)c(CN(CCO)Cc3nnnn3CCc3ccccc3)cc2c1 | > 40 µM (inactive)
89 | COc1ccc(CNC(=O)C2CCN(c3nc(OC)nc(OC)n3)CC2)cc1 | > 40 µM (inactive)
90 | COc1ccc(C(=O)Nc2ccc(OCc3ccccc3)cc2)cc1[N+](=O)[O-] | > 40 µM (inactive)
91 | CCC(=O)N1CCN(CCN=CC2=C(O)CC(c3cccs3)CC2=O)CC1 (stereo not given) | > 40 µM (inactive)
92 | Cc1ccc(Oc2nc3ccccc3n3c(C)nnc23)c(C)c1 | > 40 µM (inactive)
93 | O=S1(=O)C=C(Sc2nc3ccccc3s2)c2ccccc21 | > 40 µM (inactive)
94 | Cc1cccc(NC(=O)c2c(O)c3cccc4c3n(c2=O)CCC4)n1 | > 40 µM (inactive)
95 | N#Cc1c(-c2ccccc2)c(-c2ccccc2)nn(CC(=O)NNC(=O)Nc2ccccc2)c1=O | > 40 µM (inactive)
96 | CCc1ccc2nc(N3C(=O)C(O)=C(C(=O)c4ccco4)C3c3cccs3)sc2c1 (stereo not given) | > 40 µM (inactive)
97 | CN1C(=O)NC(c2ccc(O)cc2)C(C(=O)c2cccs2)C1(O)C(F)(F)F (stereo not given) | > 40 µM (inactive)
98 | Cc1ncc(C23CC4CC(CC(C4)C2)C3)[nH]1 | > 40 µM (inactive)
99 | COc1ccc2c3c(cccc13)C(=O)N(O)C2=O | > 40 µM (inactive)
100 | Cc1ccnc(SCc2cc(=O)c(OC(=O)c3ccco3)co2)n1 | > 40 µM (inactive)
